Reference: US7595053B2 (priority 2001, dated 2009)
Like-named read-outs stand apart in the source and are kept apart here.

Assays:
Mab Hs-1 = assay type: binding
MAb Hs-2 = assay type: binding
MAb Hs-3 = assay type: binding
[1] = tested on: Japanese encephalitis virus; assay type: in vivo, BALB/c mice; details: 40 ug conjugate per mouse per dose with Freund's adjuvant
[2] = tested on: Japanese encephalitis virus; assay type: in vivo, mice (BALB/C, C3H, SWISS/Albino); details: 50 ug peptide per mouse per dose sc with Freund's adjuvant every 14 days; FIGS. 3A-3C
[3] = tested on: Japanese encephalitis virus; assay type: cell-based, Porcine stable kidney cells; sera from mice
[4] = tested on: Japanese encephalitis virus; assay type: in vivo, mice (C3H, BALB/c, SWISS); details: observed 21 days
[5] = other strains of mice (BALB/c or SWISS)

Row | Substance | Reactivity with monoclonal antibody Hs-1, OD values at 492 nm (Mab Hs-1) | Reactivity with monoclonal antibody Hs-2, OD values at 492 nm (MAb Hs-2) | Reactivity with monoclonal antibody Hs-3, OD values at 492 nm (MAb Hs-3) | also measured
1 | LDVRMINI [41-LDVRMINI-48] | 0.277 | 0.007 | 0.082 | 
2 | MINIEASQ [45-MINIEASQ-52] | 0.177 | 0.001 | 0.080 | 
3 | YSAQVGASQ [155-YSAQVGASQ-163] | 0.118 | 0.492 | 0.334 | 
4 | NIEASQLA [47-NIEASQLA-54] | 0.07 | 0.003 | 0.081 | 
5 | YSAQVGASQAAKF [155-YSAQVGASQAAKF-167] | 0.106 | 0.501 | 0.377 | 
6 | IVVEYSSS [270-IVVEYSSS-277] | 0.637 | 0.030 | 0.112 | 
7 | SSSVKLTS [275-SSSVKLTS-282] | 0.765 | 0.053 | 0.136 | 
8 | Ovalbumin |  |  |  | Reactivity of anti peptide sera with Japanese encephalitis virus by ELISA, mean optical density ([1]; sera collected on post inoculation day 7): 0.127 ± 0.022; Reactivity of anti peptide sera with Japanese encephalitis virus by ELISA, mean optical density ([1]; sera collected on post inoculation day 14): 0.116 ± 0.072; Reactivity of anti peptide sera with Japanese encephalitis virus by ELISA, mean optical density ([1]; sera collected on post inoculation day 21): 0.153 ± 0.003
9 | AIVVEYSS [269-AIVVEYSS-276] | 0.696 | 0.041 | 0.115 | Reaction with Mab Hs-1 (in words) (Mab Hs-1): react with Mab Hs-1
10 | VEYSSSVK [272-VEYSSSVK-279] | 0.290 | 0.040 | 0.106 | 
11 | SENHGNYSAQVGASQ [149-SENHGNYSAQVGASQ-163] | 0.093 | 0.415 | 0.377 | Anti Japanese encephalitis virus response by ELISA (in words) [2]: capable of eliciting an immune response against JE virus
12 | PTLDVRMI [39-PTLDVRMI-46] | 0.313 | 0.006 | 0.025 | Reaction with Mab Hs-1 (in words) (Mab Hs-1): react with Mab Hs-1
13 | YSSSVKLT [274-YSSSVKLT-281] | 0.616 | 0.054 | 0.153 | 
14 | IMANDKPT [33-IMANDKPT-40] | 0.110 | 0.016 | 0.017 | 
15 | TLDVRMIN [40-TLDVRMIN-47] | 0.329 | 0.008 | 0.064 | 
16 | VVEYSSSV [271-VVEYSSSV-278] | 0.659 | 0.029 | 0.090 | 
17 | H-SENHGNYSAQVGASQGSIGGVFNSIGKAVHQVFG-OH [chimeric peptide] |  |  |  | Neutralization of Japanese encephalitis virus by anti-peptide sera [3, 5]: not able to neutralize the virus; Neutralization of Japanese encephalitis virus by anti-peptide sera ([3]; sera from C3H mice, diluted 1:50, plaque reduction, FIG. 4): capable of neutralizing Japanese encephalitis virus; Resistance to lethal virus challenge (survival) ([4]; C3H mice, challenge virus dose 2.3 log LD 50 i.p. followed by 1% starch i.c., FIG. 5): able to resist the virus challenge; Resistance to lethal virus challenge (survival) [4, 5]: nor were they able to resist the virus challenge; Anti Japanese encephalitis virus response by ELISA (in words) [2]: capable of eliciting an immune response against JE virus
18 | SSVKLTSG [276-SSVKLTSG-283] | 0.447 | 0.061 | 0.123 | 
19 | VRMINIEA [43-VRMINIEA-50] | 0.338 | 0.012 | 0.133 | 
20 | DKPTLDVR [37-DKPTLDVR-44] | 0.029 | 0.016 | 0.035 | 
21 | EYSSSVKL [273-EYSSSVKL-280] | 0.538 | 0.045 | 0.110 | 
22 | ANDKPTLD [35-ANDKPTLD-42] | 0.022 | 0.016 | 0.052 | 
23 | DVRMINIE [42-DVRMINIE-49] | 0.155 | 0.008 | 0.043 | 
24 | NHGNYSAQVGASQ [151-NHGNYSAQVGASQ-163] | 0.074 | 0.294 | 0.258 | 
